Test results as given in publication PMC5803267, “A small molecule inhibitor of Rheb selectively targets mTORC1 signaling” (Nature Communications, 2018).

Assays:
[1] = target: T1, Rheb-dependent mTORC1 kinase activity (Homo sapiens, UniProt Q15382); assay: Rheb-dependent mTORC1 in vitro kinase assay (Rheb-IVK); assay type: biochemical; details: for inhibition of mTORC1 activity in the Rheb-IVK: result in words
T1 construct: using full-length Rheb and mTORC1 purified from mammalian cells via a Flag-Raptor handle; made in house; host or cells: HA-GST-Rheb: Freestyle 293-F cells transfected with pRK5-HA-GST-Rheb; mTORC1: HEK-293E cells stably expressing FLAG-Raptor

[2] = test system: S473pAKT (mTORC2) in PC3 cells; assay: Chronic treatment of PC3 cells, S473pAKT Western blot; assay type: cell-based, human; details: PC3, replete, 24 h; NR1 30 µM, rapamycin 100 nM
Description: (§1) MCF-7 cells were serum-starved for 16 h and treated with compound for 90 min before cell lysis and Western blot analysis. For insulin-stimulated cells, 100 nM insulin was added 30 min before cell lysis. For EGF-stimulated cells, 100 ng mL^−1 EGF was added 10 min before cell lysis. c Rap1 activity was detected in lysates loaded in vitro with either GDP or GTPγS and treated with NR1 at the indicated concentrations. This was followed by a subsequent pulldown of GST-RalGDS-RBD. Bound Rap1 was detected by Western blot. d Evaluation of NR1 in a LAM patient-derived cell line (TRI102) under replete and serum-starved conditions. For replete conditions, TRI102 cells were treated for 90 min with compound in DMEM + 10% FBS. For serum-starved conditions, TRI102 cells were serum-starved 16 h and then treated for 90 min with compound prior to cell lysis and Western blot analysis. e HEK293 cells co-transfected with the indicated mTOR constructs and HA-GST-S6K1 were starved of amino acids or treated with NR1. To assess mTORC1 activity, an HA IP was performed and Western blots probed for ^T389pS6K1. f Chronic treatment of PC3 cells with NR1 to evaluate the inhibition of mTORC1 (using ^T389pS6K1) versus mTORC2 (using ^S473pAKT). PC3 cells were treated with compound under replete conditions for 24 h prior to cell lysis and Western blot analysis.
(§2) Accordingly, a hallmark of a selective mTORC1 inhibitor such as NR1 would be the lack of mTORC2 inhibition irrespective of the duration of treatment. PC3 cells are sensitive to mTORC2 inhibition with long-term rapamycin treatment. Indeed, upon treatment with rapamycin for 24 h, both ^T389pS6K1 and ^S473pAKT were lowered, indicating inhibitory effects on both mTORC1 and mTORC2, respectively.
(§3) For Western-based signaling assays, cells were treated for either 90 min or 2–24 h as indicated before lysis, normalization, and Western analysis. Cells were lysed in Triton lysis buffer: 1% Triton X-100, 50 mM HEPES pH 7.4, 100 mM NaCl, 2 mM EDTA, 10 mM β-glycerophosphate, 10 mM Na-pyrophosphate, protease inhibitor.

[3] = test system: T389pS6K1 (mTORC1) in PC3 cells; assay: Chronic treatment of PC3 cells, T389pS6K1 Western blot; assay type: cell-based, human; details: PC3, replete, 24 h; NR1 30 µM, rapamycin 100 nM
Description: as §1, §2, §3

T1 sequence (Q15382 1-181 limits assumed): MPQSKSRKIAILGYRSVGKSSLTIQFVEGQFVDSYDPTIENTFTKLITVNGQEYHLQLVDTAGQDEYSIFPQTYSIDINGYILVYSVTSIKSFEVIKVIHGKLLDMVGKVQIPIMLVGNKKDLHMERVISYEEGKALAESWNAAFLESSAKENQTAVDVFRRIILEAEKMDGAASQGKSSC

Row | IC50 ([1]; LanthaScreen TR-FRET format, T46p4E-BP1 antibody, read-out: IC50 in the Rheb-IVK) | inhibition of mTORC1 activity in the Rheb-IVK [1] | SMILES | S473pAKT after 24 h treatment [2] | T389pS6K1 after 24 h treatment [3]
1 | 2 nM | inhibited mTORC1 activity | CCC(=O)N1CCN(c2ccc(-n3c(=O)ccc4cnc5ccc(-c6cnc7ccccc7c6)cc5c43)cc2C(F)(F)F)CC1 [Torin-1] |  | 
2 |  | no inhibition | CO[C@H]1C[C@@H]2CC[C@@H](C)[C@@](O)(O2)C(=O)C(=O)N2CCCC[C@H]2C(=O)O[C@H]([C@H](C)C[C@@H]2CC[C@@H](O)[C@H](OC)C2)CC(=O)[C@H](C)/C=C(\C)[C@@H](O)[C@@H](OC)C(=O)[C@H](C)C[C@H](C)/C=C/C=C/C=C/1C [rapamycin, reference compound] | lowered | lowered
